{"source": "the supplement of paper PMC10307832", "assay_in_all_cases": "relative viability (nuclei count vs DMSO), 5 days (fraction); higher = more cells survive", "key": {"AT9283 + Linsitinib": {"compound": "O=C(Nc1c[nH]nc1-c1nc2ccc(CN3CCOCC3)cc2[nH]1)NC1CC1 [AT9283] + C[C@]1(O)C[C@@H](c2nc(-c3ccc4ccc(-c5ccccc5)nc4c3)c3c(N)nccn32)C1 [Linsitinib] (partner 1 µM)", "outline": "(§1)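 Relative viability equals treated-well nuclei counts divided by vehicle-well nuclei counts. Counts came from 4× images of lung cancer cell lines grown in 1536-well plates for 5 days after pin-tool dosing on the day after seeding. Dosing used one drug alone or a fixed anchor-drug dose plus five library-drug doses (not always all listed) in √10 steps, and values are medians of duplicate plates.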"}, "AT9283 + Dasatinib": {"compound": "O=C(Nc1c[nH]nc1-c1nc2ccc(CN3CCOCC3)cc2[nH]1)NC1CC1 [AT9283] + Cc1nc(Nc2ncc(C(=O)Nc3c(C)cccc3Cl)s2)cc(N2CCN(CCO)CC2)n1 [Dasatinib] (partner 0.075 µM)", "outline": "as §1"}, "Erlotinib + Dasatinib": {"compound": "C#Cc1cccc(Nc2ncnc3cc(OCCOC)c(OCCOC)cc23)c1 [Erlotinib] + Cc1nc(Nc2ncc(C(=O)Nc3c(C)cccc3Cl)s2)cc(N2CCN(CCO)CC2)n1 [Dasatinib] (partner 0.075 µM)", "outline": "as §1"}, "Erlotinib + Linsitinib": {"compound": "C#Cc1cccc(Nc2ncnc3cc(OCCOC)c(OCCOC)cc23)c1 [Erlotinib] + C[C@]1(O)C[C@@H](c2nc(-c3ccc4ccc(-c5ccccc5)nc4c3)c3c(N)nccn32)C1 [Linsitinib] (partner 1 µM)", "outline": "as §1"}, "Erlotinib + Alpelisib": {"compound": "C#Cc1cccc(Nc2ncnc3cc(OCCOC)c(OCCOC)cc23)c1 [Erlotinib] + Cc1nc(NC(=O)N2CCC[C@H]2C(N)=O)sc1-c1ccnc(C(C)(C)C(F)(F)F)c1 [Alpelisib] (partner 2 µM)", "outline": "as §1"}}, "data": [{"cell line": "NCI-H441", "values": [{"measurement": "relative viability", "setting": "AT9283 + Linsitinib; first compound 0.003 µM", "value": 0.535}, {"measurement": "relative viability", "setting": "AT9283 + Linsitinib; first compound 0.03 µM", "value": 0.474}, {"measurement": "relative viability", "setting": "AT9283 + Linsitinib; first compound 0.09487 µM", "value": 0.142}, {"measurement": "relative viability", "setting": "AT9283 + Linsitinib; first compound 0.3 µM", "value": 0.165}, {"measurement": "relative viability", "setting": "AT9283 + Dasatinib; first compound 0.003 µM", "value": 0.567}, {"measurement": "relative viability", "setting": "AT9283 + Dasatinib; first compound 0.03 µM", "value": 0.49}, {"measurement": "relative viability", "setting": "AT9283 + Dasatinib; first compound 0.09487 µM", "value": 0.318}, {"measurement": "relative viability", "setting": "AT9283 + Dasatinib; first compound 0.3 µM", "value": 0.209}, {"measurement": "relative viability", "setting": "Erlotinib + Dasatinib; first compound 0.02 µM", "value": 0.651}, {"measurement": "relative viability", "setting": "Erlotinib + Dasatinib; first compound 0.2 µM", "value": 0.554}, {"measurement": "relative viability", "setting": "Erlotinib + Dasatinib; first compound 0.6325 µM", "value": 0.508}, {"measurement": "relative viability", "setting": "Erlotinib + Dasatinib; first compound 2 µM", "value": 0.61}, {"measurement": "relative viability", "setting": "Erlotinib + Linsitinib; first compound 0.02 µM", "value": 0.686}, {"measurement": "relative viability", "setting": "Erlotinib + Linsitinib; first compound 0.2 µM", "value": 0.746}, {"measurement": "relative viability", "setting": "Erlotinib + Linsitinib; first compound 0.6325 µM", "value": 0.569}, {"measurement": "relative viability", "setting": "Erlotinib + Linsitinib; first compound 2 µM", "value": 0.326}, {"measurement": "relative viability", "setting": "Erlotinib + Alpelisib; first compound 0.02 µM", "value": 0.688}, {"measurement": "relative viability", "setting": "Erlotinib + Alpelisib; first compound 0.2 µM", "value": 0.655}, {"measurement": "relative viability", "setting": "Erlotinib + Alpelisib; first compound 0.6325 µM", "value": 0.743}, {"measurement": "relative viability", "setting": "Erlotinib + Alpelisib; first compound 2 µM", "value": 0.466}]}]}
